Source: patent US10253052B2, “HBED-bisphosphonates, radiometal conjugates and their use as theranostic agents” (Five Eleven Pharma Inc., priority 2015, dated 2019)
Entries after “also recorded” stand apart in the source; their conditions may differ.

How the values were obtained:
[1] = In vivo biodistribution in mice; design: species or system normal CD-1 male mice; conditions: iv
Summary of the method: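 Uptake values are % injected dose per gram of wet tissue, from gamma counting of weighed organs with tibia plus femur taken as bone. Tracers (20-30 μCi per animal) were given i.v. to healthy male CD-1 mice (25-30 g), with sacrifice at 2, 30, 60 and 120 min post injection.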

[2] = In vitro binding to hydroxyapatite; conditions: 20 mg hydroxyapatite in saline, 10 min at room temperature
Summary of the method: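 Binding is given as the percentage of ^68Ga activity retained by hydroxyapatite, measured by gamma counting of the solid versus the pooled supernatant and saline washes. The tracer (1 μCi) was exposed for 10 min at room temperature to hydroxyapatite pre-soaked 24 h in isotonic saline.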

[3] = tested on: PSMA positive LNCaP cells; assay: Cell uptake in PSMA positive LNCaP cells; format: cell-based; conditions: 1 hr incubation at 37° C.
PSMA negative PC3 cells = assay: Cell uptake in PSMA negative PC3 cells; format: cell-based; conditions: 1 hr incubation at 37° C.
[4] = tested on: PSMA expressing LNCaP tumor; assay: Micro-PET imaging in PSMA expressing tumor bearing mouse; format: in vivo, nude mice; conditions: 500 μCi, 60 min post injection, 15 min scan
Method: [^68Ga]1a, [^68Ga]BPAMD and [^18F]NaF were tested in normal CD-1 male mice. [^68Ga]1g was tested in PSMA expressing LNCaP tumor bearing nude mice. Mice received 300-500 uCi radiotracer through a tail vein injection. PET imaging was performed under isoflurane anaesthesia (2% isoflurane, 1.5 L/min oxygen). The microPET imaging was performed with a small animal PET (Mosaic by Phillips, USA). During PET measurements, the animals were placed in the prone position. At 60 min post injection of the radiotracer, data acquisition was performed for 15 min.

O=C([O-])CN(CCN(CC(=O)[O-])Cc1cc(CCC(=O)NC(P(=O)(O)O)P(=O)(O)O)ccc1[O-])Cc1cc(CCC(=O)NCCCCCC(=O)NCCCC[C@H](NC(=O)N[C@@H](CCC(=O)O)C(=O)O)C(=O)O)ccc1[O-].[68Ga+3] [[^68Ga]1g]
bone to blood ratio ([1]; 2 min): 0.97 | bone to muscle ratio ([1]; 2 min): 3.71 | Biodistribution: Blood ([1]; 2 min post injection): 8.34 ± 0.51 % dose/g | Biodistribution: Bone ([1]; 2 min post injection): 8.13 ± 1.87 % dose/g | Biodistribution: Brain ([1]; 2 min post injection): 0.21 ± 0.03 % dose/g | Biodistribution: Heart ([1]; 2 min post injection): 3.13 ± 0.15 % dose/g | Biodistribution: Kidney ([1]; 2 min post injection): 35.3 ± 3.75 % dose/g | Biodistribution: Liver ([1]; 2 min post injection): 1.73 ± 0.09 % dose/g | Biodistribution: Lung ([1]; 2 min post injection): 4.19 ± 0.50 % dose/g | Biodistribution: Muscle ([1]; 2 min post injection): 2.19 ± 0.11 % dose/g | Biodistribution: Pancreas ([1]; 2 min post injection): 1.69 ± 0.13 % dose/g | Biodistribution: Skin ([1]; 2 min post injection): 2.97 ± 0.14 % dose/g | Biodistribution: Spleen ([1]; 2 min post injection): 2.50 ± 0.41 % dose/g | bone to blood ratio ([1]; 30 min): 29 | bone to muscle ratio ([1]; 30 min): 46 | Biodistribution: Blood ([1]; 30 min (0.5 hr) post injection): 0.56 ± 0.10 % dose/g | Biodistribution: Bone ([1]; 30 min (0.5 hr) post injection): 16.3 ± 0.68 % dose/g | Biodistribution: Brain ([1]; 30 min (0.5 hr) post injection): 0.03 ± 0.00 % dose/g | Biodistribution: Heart ([1]; 30 min (0.5 hr) post injection): 0.45 ± 0.07 % dose/g | Biodistribution: Kidney ([1]; 30 min (0.5 hr) post injection): 77.1 ± 8.24 % dose/g | Biodistribution: Liver ([1]; 30 min (0.5 hr) post injection): 0.27 ± 0.02 % dose/g | Biodistribution: Lung ([1]; 30 min (0.5 hr) post injection): 1.02 ± 0.13 % dose/g | Biodistribution: Muscle ([1]; 30 min (0.5 hr) post injection): 0.35 ± 0.02 % dose/g | Biodistribution: Pancreas ([1]; 30 min (0.5 hr) post injection): 0.69 ± 0.02 % dose/g | Biodistribution: Skin ([1]; 30 min (0.5 hr) post injection): 0.65 ± 0.05 % dose/g | Biodistribution: Spleen ([1]; 30 min (0.5 hr) post injection): 2.09 ± 0.75 % dose/g | bone to blood ratio ([1]; 60 min): 53 | bone to muscle ratio ([1]; 60 min): 74 | Biodistribution: Blood ([1]; 60 min (1 hr) post injection): 0.28 ± 0.05 % dose/g | Biodistribution: Bone ([1]; 60 min (1 hr) post injection): 15.1 ± 1.04 % dose/g | Biodistribution: Brain ([1]; 60 min (1 hr) post injection): 0.03 ± 0.01 % dose/g | Biodistribution: Heart ([1]; 60 min (1 hr) post injection): 0.32 ± 0.03 % dose/g | Biodistribution: Kidney ([1]; 60 min (1 hr) post injection): 78.4 ± 7.11 % dose/g | Biodistribution: Liver ([1]; 60 min (1 hr) post injection): 0.18 ± 0.01 % dose/g | Biodistribution: Lung ([1]; 60 min (1 hr) post injection): 0.58 ± 0.02 % dose/g | Biodistribution: Muscle ([1]; 60 min (1 hr) post injection): 0.21 ± 0.02 % dose/g | Biodistribution: Pancreas ([1]; 60 min (1 hr) post injection): 0.37 ± 0.07 % dose/g | Biodistribution: Skin ([1]; 60 min (1 hr) post injection): 0.42 ± 0.06 % dose/g | Biodistribution: Spleen ([1]; 60 min (1 hr) post injection): 0.91 ± 0.13 % dose/g | bone to blood ratio ([1]; 120 min): 98 | bone to muscle ratio ([1]; 120 min): 98 | Biodistribution: Blood ([1]; 120 min post injection): 0.17 ± 0.03 % dose/g | Biodistribution: Bone ([1]; 120 min post injection): 17.0 ± 0.05 % dose/g | Biodistribution: Brain ([1]; 120 min post injection): 0.02 ± 0.00 % dose/g | Biodistribution: Heart ([1]; 120 min post injection): 0.20 ± 0.03 % dose/g | Biodistribution: Kidney ([1]; 120 min post injection): 70.3 ± 8.29 % dose/g | Biodistribution: Liver ([1]; 120 min post injection): 0.18 ± 0.02 % dose/g | Biodistribution: Lung ([1]; 120 min post injection): 0.47 ± 0.04 % dose/g | Biodistribution: Muscle ([1]; 120 min post injection): 0.17 ± 0.04 % dose/g | Biodistribution: Pancreas ([1]; 120 min post injection): 0.34 ± 0.03 % dose/g | Biodistribution: Skin ([1]; 120 min post injection): 0.29 ± 0.06 % dose/g | Biodistribution: Spleen ([1]; 120 min post injection): 0.87 ± 0.20 % dose/g | Hydroxyapatite Binding (%) [2]: 88.0 ± 10.5% | Cell uptake in PSMA positive LNCaP cells (in words) [3]: high cell uptake and retention only in LNCaP cells; also recorded: excellent uptake | Cell uptake in PSMA negative PC3 cells (in words) (PSMA negative PC3 cells): no uptake | Micro-PET targeting (in words) [4]: targets both bone and PSMA binding sites
